Measured values as given in patent US10118902B2 (Sanford Burnham Prebys Medical Discovery Institute, priority 2014, dated 2018).

Target: neurotensin receptor 1 (NTR1) (Homo sapiens (Human), UniProt P30989)
Experiment: NTR1 dose response, high-content imaging beta-arrestin-GFP assay in NTR1-U2OS cells
Assay type: cell-based
Conditions: read-out: EC50

Sequence of neurotensin receptor 1 (NTR1) (P30989 whole entry, species assumed): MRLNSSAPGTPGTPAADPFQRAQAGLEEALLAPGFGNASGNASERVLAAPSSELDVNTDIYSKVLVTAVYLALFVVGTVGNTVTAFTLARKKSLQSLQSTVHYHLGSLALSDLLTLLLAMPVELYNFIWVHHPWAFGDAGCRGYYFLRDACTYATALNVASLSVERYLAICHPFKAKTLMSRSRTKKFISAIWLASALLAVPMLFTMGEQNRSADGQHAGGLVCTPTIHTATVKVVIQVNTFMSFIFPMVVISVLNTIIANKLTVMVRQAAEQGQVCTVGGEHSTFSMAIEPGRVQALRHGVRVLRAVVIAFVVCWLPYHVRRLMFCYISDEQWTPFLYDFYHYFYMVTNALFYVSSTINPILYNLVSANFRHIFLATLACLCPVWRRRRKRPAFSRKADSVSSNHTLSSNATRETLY

EC50 | SMILES
< 500 nM | COc1ccccc1C1CCN(c2nc(C3CC3)nc3c(C)cc(N(C)CCO)cc23)CC1 [Example 125, 2-({2-cyclopropyl-4-[4-(2-methoxy-phenyl)-piperidin-1-yl]-8-methyl-quinazolin-6-yl}-methyl-amino)-ethanol]
> 10000 nM | COc1ccccc1C1CCN(c2nc(C3CC3)nc(C)c2CC(=O)Nc2ccccc2)CC1 [Example 160]
> 10000 nM | COc1ccccc1N(C)C1CCCC1Nc1nc(C2CC2)nc2ccc(N(C)CCO)cc12 (centres unmarked) [Example 151, 2-[(2-cyclopropyl-4-{2-[(2-methoxy-phenyl)-methyl-amino]-cyclopentylamino}-quinazolin-6-yl)-methyl-amino]-ethanol]
2000 to 10000 nM | COc1cccnc1N1CCN(c2nc(C3(F)CC3)nc3ccc(N(C)CCO)cc23)CC1 [Example 209, 2-({2-(1-Fluoro-cyclopropyl)-4-[4-(3-methoxy-pyridin-2-yl)-piperazin-1-yl]-quinazolin-6-yl}-methyl-amino)-ethanol]
> 10000 nM | CN(C)c1ccccc1C1CCN(c2nc(C3(C(F)(F)F)CC3)nc3ccc(N(C)CCN4CCOCC4)cc23)CC1 [Example 50, [4-[4-(2-dimethylamino-phenyl)-piperidin-1-yl]-2-(1-trifluoromethyl-cyclopropyl)-quinazolin-6-yl]-methyl-(2-morpholin-4-yl-ethyl)-amine]
500 to 2000 nM | COc1ccccc1C1CCN(c2nc(C3CC3)nc3cnc(N(C)CCN4CCOCC4)cc23)CC1 [Example 194, 2-cyclopropyl-4-(4-(2-methoxyphenyl)piperidin-1-yl)-N-methyl-N-(2-morpholinoethyl)pyrido[3,4-d]pyrimidin-6-amine]
> 10000 nM | CCCN(C)c1ccc2nc(NC3CCC3)nc(N3CCC(c4ccccc4OC)CC3)c2c1 [Example 97, N2-Cyclobutyl-4-[4-(2-methoxy-phenyl)-piperidin-1-yl]-N6-methyl-N6-propyl-quinazoline-2,6-diamine]
> 10000 nM | COC(=O)Cc1c(C)nc(N2CCC(c3ccccc3OC)CC2)nc1C1CC1 [Example 161, {4-cyclopropyl-2-[4-(2-methoxy-phenyl)-piperidin-1-yl]-6-methyl-pyrimidin-5-yl}-acetic acid methyl ester]
2000 to 10000 nM | COCCN(C)Cc1ccc2nc(C3CC3)nc(N3CCC(c4ccccc4OC)CC3)c2c1 [Example 87, {2-cyclopropyl-4-[4-(2-methoxy-phenyl)-piperidin-1-yl]-quinazolin-6-ylmethyl}-(2-methoxy-ethyl)-methyl-amine]
< 500 nM | COc1ccccc1C1CCN(c2nc(C3CC3)nc3ccc(N4CC[C@@H](O)C4)cc23)CC1 [Example 81, (R)-1-{2-cyclopropyl-4-[4-(2-methoxy-phenyl)-piperidin-1-yl]-quinazolin-6-yl}-pyrrolidin-3-ol]
500 to 2000 nM | COc1ccccc1C1CCN(c2nc(C3(F)CC3)nc3ccc(N4CC[C@H](O)C4)cc23)CC1 [Example 177, (S)-1-{2-(1-Fluoro-cyclopropyl)-4-[4-(2-methoxy-phenyl)-piperidin-1-yl]-quinazolin-6-yl}-pyrrolidin-3-ol]
500 to 2000 nM | COc1ccccc1C1CCN(c2nc(C3(C)CCC3)nc3ccc(N(C)CCO)cc23)CC1 [Example 70, 2-{[4-[4-(2-Methoxy-phenyl)-piperidin-1-yl]-2-(1-methyl-cyclobutyl)-quinazolin-6-yl]-methyl-amino}-ethanol]
> 10000 nM | COc1ccccc1C1CCN(c2nc(C3CC3)nc3ccc(CN(C)CCN4CCOCC4)cc23)CC1 [Example 88, {2-cyclopropyl-4-[4-(2-methoxy-phenyl)-piperidin-1-yl]-quinazolin-6-ylmethyl}-methyl-(2-morpholin-4-yl-ethyl)-amine]
> 10000 nM | CN(C)c1ccccc1C1CCN(c2nc(C3(C)CC3)nc3ccc(N(C)CCN4CCCC4)cc23)CC1 [Example 29, [4-[4-(2-dimethylamino-phenyl)-piperidin-1-yl]-2-(1-methyl-cyclopropyl)-quinazolin-6-yl]-methyl-(2-pyrrolidin-1-yl-ethyl)-amine]
< 500 nM | COc1ccccc1C1CCN(c2nc(C3(F)CC3)nc3ccc(N(C)CCO)cc23)CC1 [Example 15, 2-({2-(1-Fluoro-cyclopropyl)-4-[4-(2-methoxy-phenyl)-piperidin-1-yl]-quinazolin-6-yl}-methyl-amino)-ethanol]
500 to 2000 nM | COc1ccccc1C1CCN(c2nc(C3(F)CC3)nc3ccc(N(C)CCN4CCOCC4)cc23)CC1 [Example 17, {2-(1-fluoro-cyclopropyl)-4-[4-(2-methoxy-phenyl)-piperidin-1-yl]-quinazolin-6-yl}-methyl-(2-morpholin-4-yl-ethyl)-amine]
> 10000 nM | COCCN(C)c1ccc2nc(-c3ccccc3)nc(N3CCC(c4ccccc4OC)CC3)c2c1 [Example 145, (2-methoxy-ethyl)-{4-[4-(2-methoxy-phenyl)-piperidin-1-yl]-2-phenyl-quinazolin-6-yl}-methyl-amine]
500 to 2000 nM | COc1ccccc1C1CCN(c2nc(C3CCC3)nc3ccc(N(C)CCO)cc23)CC1 [Example 43, 2-({2-cyclobutyl-4-[4-(2-methoxy-phenyl)-piperidin-1-yl]-quinazolin-6-yl}-methyl-amino)-ethanol]
500 to 2000 nM | COc1ccccc1C1CCN(c2nc(C3CC3)nc3ccc(N4CC[C@H](OC)C4)cc23)CC1 [Example 84, (S)-2-cyclopropyl-4-(4-(2-methoxyphenyl)piperidin-1-yl)-6-(3-methoxypyrrolidin-1-yl)quinazoline]
500 to 2000 nM | Cc1cc2nc(C3CC3)nc(N3CCC(c4ccccc4N(C)C)CC3)c2cc1N(C)CCO [Example 116, 2-({2-cyclopropyl-4-[4-(2-dimethylamino-phenyl)-piperidin-1-yl]-7-methyl-quinazolin-6-yl}-methyl-amino)-ethanol]
> 10000 nM | CCCN(C)c1ccc2nc(C3CC3)nc(N3CCN(C4CCCC4O)CC3)c2c1 (centres unmarked) [Example 141, 2-{4-[2-cyclopropyl-6-(methyl-propyl-amino)-quinazolin-4-yl]-piperazin-1-yl}-cyclopentanol]
> 10000 nM | CCCN(C)C(=O)Cc1c(C)nc(C2CC2)nc1N1CCC(c2ccccc2OC)CC1 [Example 158, 2-{2-cyclopropyl-4-[4-(2-methoxy-phenyl)-piperidin-1-yl]-6-methyl-pyrimidin-5-yl}-N-methyl-N-propyl-acetamide]
2000 to 10000 nM | COc1ccccc1C1CCN(c2nc(C3CCCC3)nc3ccc(N(C)CCO)cc23)CC1 [Example 38, 2-({2-cyclopentyl-4-[4-(2-methoxy-phenyl)-piperidin-1-yl]-quinazolin-6-yl}-methyl-amino)-ethanol]
500 to 2000 nM | COc1ccc(F)cc1C1CCN(c2nc(C3CC3)nc3cc(F)c(N(C)CCO)cc23)CC1 [Example 111, 2-({2-cyclopropyl-7-fluoro-4-[4-(5-fluoro-2-methoxy-phenyl)-piperidin-1-yl]-quinazolin-6-yl}-methyl-amino)-ethanol]
500 to 2000 nM | COc1cccnc1N1CCN(c2nc(C3(F)CC3)nc3c(F)cc(N(C)CCO)cc23)CC1 [Example 215, 2-({8-Fluoro-2-(1-fluoro-cyclopropyl)-4-[4-(3-methoxy-pyridin-2-yl)-piperazin-1-yl]-quinazolin-6-yl}-methyl-amino)-ethanol]

SMILES | EC50
COc1ccccc1C1CCN(c2nc(-c3ccccc3)nc3ccc(N(C)C)cc23)CC1 [Example 143] | > 10000 nM
